In patent US20120094939A1, “ANTI-VIRAL COMPOUNDS, COMPOSITIONS AND METHODS” (priority 2007, published 2012):
Where two headings read alike, the source gives them in different places.

What was measured:
[1] = test system: Huh7/Rep-Feo HCV replicon (HCV RNA replication); format: cell-based, Hepatitis C virus (strain HCV—N, genotype 1b)
From the text: Development of the Huh7/Rep-Feo replicon assay. […] This replicon was derived from a chimpanzee infectious clone (strain HCV—N, genotype 1b). In this replicon, the structural genes have been replaced by a reporter gene. The chimeric reporter gene Feo encodes the firefly luciferase protein fused in-frame with neomycin phosphotransferase. This Huh7/Rep-Feo cell supports high levels of autonomous HCV RNA replication because it was derived from the HCV—N strain, which carries an adaptive mutation in NSSA that confers highlevel replication in tissue culture. Furthermore, the level of luciferase correlates well with levels of HCV RNA production, so that luciferase can be used as a reliable surrogate marker for HCV replication. The use of luciferase as a reporter permits quantitative and highthroughput detection of HCV replication levels. The specific use of firefly luciferase makes this replicon especially well-suited for automation, because the luciferase reagent can be added directly to the cell culture system prior to signal detection without the need for cell lysis, washing, or aspiration.
HCV Replicon System-Primary Screening. […] Briefly, this replicon harbors a subgenomic HCV genotype 1b sequence, fused to firefly luciferase, stably replicating under neomycin selection. Cells were propagated in Dulbecco's Modified Eagle's medium (DMEM) containing 10% fetal bovine serum (FBS) supplemented with 1% penicillin-streptomycin, and 500 μg of Geneticin (Invitrogen Corp., Carlsbad, Calif.)/mL. Cells were cultured in a 37° C., 5% CO2-humidified incubator for all experiments. To decrease day-today variability in the assay, a large homogenous population of subconfluent cells was passaged so that a similar lot of cells could be used throughout the HTS assay.
(§1) Primary Screening-HTS. Information about the library of known bioactive compounds that was screened and the general automated HTS protocol is available at http://www.broad.harvard.edu/chembio/index.html (see FIG. 10 for list of primary HTS with known bioactives library). Based on the results of optimization experiments in the 384-well plate format, the general HTS protocol was adapted as follows. Unless otherwise indicated, cells were incubated at all times in a humidified environment with 5% CO2 at 37° C. The assay was initiated by plating 30 μL of medium containing 2000 cells/well into white 384-well opaque-bottom plates (Nunc, Rochester, N.Y.) using an automated plate filler (Bio-Tek uFiller; Winsooki, Vt.) and allowing the cells to adhere for 24 hours. One hundred nL of compound stock solutions in DMSO was transferred from stock plates into the 384-well assay plates using an automated pin-based compound transfer robot (CyBio CyBi-Well vario; Woburn, Mass.). The final compound concentration in each well was estimated to be approximately 10-50 μM, with most compounds at 33 μM. The wells contained 0.33% DMSO by volume. The cells were then incubated for another 48 hours. The luminescent signal from each plate was detected using an automated plate reader (Perkin-Elmer Envision 1; Wellesley, Mass.). This screen was performed in duplicate. For negative controls, entire DMSO-treated control plates were employed, in addition to DMSO-only control wells that were incorporated into each compound assay plate. The cells were assayed for luciferase activity using the Bright-Glo Luciferase assay system (Promega), following the manufacturer's instructions. As a counter-screen, cell viability was assessed using the CellTiterGlo Luminescent cell viability assay (Promega) following the manufacturer's instructions.
Computational Data Analysis-Primary Screening. For each replicate, a mock-treatment distribution based on the total population of mock (DMSO) controls in that replicate was built (FIG. 11).

Huh7/Rep-Feo cells = assay: Primary HTS cell viability counter-screen (CellTiterGlo); format: cell-based, human; settings: Table 2 antiviral hits of DOS set; approximately 10-50 μM, most at 33 μM; 48 hours
Experimental: as §1
Computational Data Analysis-Primary Screening. For each replicate, a mock-treatment distribution based on the total population of mock (DMSO) controls in that replicate was built (FIG. 11). Each compound was independently assigned a sign (ie, “+” or “−”) Z-score. Z-scores are calculated by dividing each background-subtracted, compound-treated well by the global standard deviation. A global standard deviation of the background-subtracted, mock-treated wells is calculated over the entire experiment. This distribution was determined to be consistent with experimental noise observed under cell-based assay conditions. The resulting collection of continuousvalued Z-scores represents the primary data set to be used for further analysis. The composite Z-score was calculated as a vector projection of each Z-score in duplicate onto an imaginary line of perfect reproducibility. Reproducibility is the cosine of the angle between each Z-score and that imaginary line; it is dimensionless and ranges from −1 to +1. […] The primary data were analyzed using the commercial software packages Pipeline Pilot (SciTegic, San Diego, Calif.) and SpotFire (SpotFire, Inc., Somerville, Mass.). The means of the negative, DMSO-only controls were considered the zero point.
Primary Screening—HTS: Unless otherwise indicated, cells were incubated at all times in a humidified environment with 5% CO2 at 37° C. The assay was initiated by plating 30 μl of medium containing 2,000 cells/well into white 384-well opaque-bottom plates (Nunc; Rochester, N.Y.) using an automated plate filler (Bio-Tek μFiller; Winsooki, Vt.) and allowing the cells to adhere for 24 hours. 100 nl of compound stock solutions in DMSO were transferred from stock plates into the 384-well assay plates using an automated pin-based compound transfer robot (CyBio CyBi-Well vario; Woburn, Mass.). The final compound concentration in each well was estimated to be approximately 10-50 μM, with most compounds at 33 μM. The wells contained 0.33% DMSO by volume. The cells were then incubated for another 48 hours. […]

OR6 cells = assay: Secondary assay cell viability (CellTiter-Glo); settings: 48 hours
Experimental: Secondary Assays-Hit Validation. Several hits from primary HTS, as well as functionally related compounds, were purchased from Sigma (St. Louis, Mo.), Calbiochem (San Diego, Calif.), and Microsource (Gaylordsville, Conn.). […] Ten mM of stock solutions of the individual compounds to be tested was prepared in the appropriate solvent (DMSO, ethanol, or H2O, according to the manufacturer's information) and stored at −20° C. Cells were seeded into 96-well plates at a density of 2000 cells/well in 100 μL of medium. The cells were incubated for 24 hours at 37° C. to obtain the optimal level of adherence. Solutions of candidate hit compounds were added to wells to achieve final concentrations of 0.1, 1, 10, 50, and 100 μM. The final concentration of DMSO or ethanol in every well was 1% or less by volume. Mock solutions were used as a negative control. PEG-IFN and ribavirin were used as positive controls at various concentrations, alone and in combination. The plates were then incubated at 37° C. with 5% CO2 for 48 hours before they were analyzed. Luminescent signal was generated using the Renilla luciferase assay kit (Promega) according to the manufacturer's instructions. Signal was then detected using a LumiCount (Packard BioScience Company) luminometer. Cell viability was assessed using CellTiter-Glo (Promega), following the manufacturer's instructions. All experiments were performed in triplicate.
Secondary Assays-Data Analysis. Values were presented as a percentage of mock treated control, which was arbitrarily set at 100%. Data were expressed as the mean (±) SD. […] Synergy calculations were performed using CalcuSyn (Biosoft; Cambridge, England).
Secondary Assays—Hit Validation: 10 mM of stock solutions of the individual compounds to be tested were prepared in DMSO and stored at −20° C. Cells were seeded into 96-well plates at a density of 2,000 cells/well in 100 μl of medium. The cells were incubated for 24 hours at 37° C. to obtain the optimal level of adherence. Solutions of candidate hit compounds were added to wells to achieve varying final concentrations between 0.01 and 100 μM. The final concentration of DMSO or ethanol in every well was 1% or less by volume. Mock solutions were used as a negative control. Peginterferon-alfa-2b (PEG-Intron; Schering Corp.; Kenilworth, N.J.) and ribavirin (Sigma; St. Louis, Mo.) were used as positive controls at various concentrations, alone and in combination. The plates were then incubated at 37° C. with 5% CO2 for 48 hours before they were analyzed. Luminescent signal was generated using the Renilla luciferase assay kit (Promega; Madison, Wis.) according to the manufacturer's instructions. Signal was then detected using a LumiCount™ (Packard BioScience Company; Downers Grove, Ill.) luminometer. Cell viability was assessed using CellTiter-Glo (Promega; Madison, Wis.), following the manufacturer's instructions. All experiments were performed in triplicate. Values were presented as a percentage of mock treated control, which was arbitrarily set at 100%. Data were expressed as the mean±SD.
Secondary Assays—Data Analysis: Values were presented as a percentage of mock treated control, which was arbitrarily set at 100%. Data were expressed as the mean±SD.

[2] = Table 2 antiviral hits of DOS set, approximately 10-50 μM, most at 33 μM, 48 hours

Structure (SMILES)	R-CompZ, compositeZ score for reporter gene assay [1, 2]	C-CompZ, compositeZ score for cell viability assay (Huh7/Rep-Feo cells)	cytotoxicity (in words) (OR6 cells)	R-CompZ, compositeZ score for reporter gene assay [1]	concentrations at which cytotoxic effects were exhibited (OR6 cells) [µM]
C[C@@H](O/N=C1/[C@H]2CCn3c(=O)n(-c4ccccc4)c(=O)n3[C@H]2[C@H](O)[C@@H]2O[C@H]12)c1cn([C@H](CO)Cc2ccccc2)nn1 [BUCMLD-B10A14]	−3.5069	1.128	–	–	–
COc1ccc(O[C@H]2C=C[C@@H](c3ccccc3)O[C@@H]2CO/N=C(\C)CCN2CCc3nc(-c4ccccc4)c(-c4ccccc4)cc3C2)cc1 [BUCMLD-B13A1]	−3.1824	−0.2035	–	–	–
O=c1n(-c2ccccc2)c(=O)n2n1CC[C@@H]1/C(=N/OC[C@@H](O)COCc3ccco3)[C@H]3O[C@H]3[C@@H](O)[C@@H]12 [BUCMLD-B10A8]	−3.7511	1.1582	–	–	–
CC[C@@H](c1ccccc1)n1c(=O)n2n(c1=O)[C@H]1[C@H](O)[C@@H]3O[C@@H]3/C(=N\OC[C@@H](O)COCc3ccco3)[C@H]1CC2 [BUCMLD-XL-190]	−2.5928	0.4558	–	–	–
CC(=O)OC[C@H]1O[C@@H](O/N=C2/[C@H]3CCn4c(=O)n(-c5ccccc5)c(=O)n4[C@H]3[C@H](O)[C@@H]3O[C@H]23)[C@H](OC(C)=O)[C@@H](OC(C)=O)[C@@H]1OC(C)=O [BUCMLD-B10A13]	−2.8629	1.0278	–	–	–
O=C1C2C=C(Br)C(CC2OCCCCCCO)[C@@]12CO2 (stereo partly shown) [SM_A1B2_1P32]	−3.252	0.9925	–	–	–
C[C@H](O/N=C1/[C@H]2CCn3c(=O)n(-c4ccccc4)c(=O)n3[C@H]2[C@H](O)[C@@H]2O[C@H]12)c1cn([C@H](CO)Cc2ccccc2)nn1 [BUCMLD-B10A10]	−2.7028	1.9213	–	–	–
O=C1C2C=C(I)C(CC2c2ccccc2)[C@@]12CO2 (stereo partly shown) [SM_A5B5_2P118]	−3.6565	−0.4963	–	–	–
COc1ccc2cc1Oc1ccc(cc1)C[C@H]1c3cc(c(OC)cc3CCN1C)Oc1c(OC)c(OC)cc3c1[C@H](C2)N(C)CC3 [tetrandrine]	–	–	cytotoxicity	–	–
O=C1C2C=C(Br)C(CC2c2ccccc2)[C@@]12CO2 (stereo partly shown) [SM_A1B5_2P24]	−3.38	−0.856	–	–	–
COc1ccc(O[C@H]2C=C[C@@H](c3ccccc3)O[C@@H]2CO/N=C2/[C@H]3CCn4c(=O)n(-c5ccccc5)c(=O)n4[C@H]3[C@H](O)[C@@H]3O[C@H]23)cc1 [BUCMLD-B10A1]	−4.4774	−1.5319	–	–	–
C[C@@]12COC[C@]13C=C(Br)C(C2)[C@@]1(CO1)C3=O [SM_A7C2_2P155]	−2.6813	0.6028	–	–	–
O=C1C2C=C(I)C(CC2OCCCCCCO)[C@@]12CO2 (stereo partly shown) [SM_A5B2_2P142]	−2.7176	0.5666	–	–	–
COC12C=C(Br)C(CC1c1cccc(C)c1)[C@@]1(CO1)C2=O (stereo partly shown) [SM_A4B6_2P123]	−3.4419	−0.795	–	–	–
C#CCCCO/N=C1/[C@H]2CCn3c(=O)n(-c4ccccc4)c(=O)n3[C@H]2[C@H](O)[C@@H]2O[C@H]12 [BUCMLD-XL-184]	−3.0142	−0.1464	–	–	–
C=CC[C@@H]1C=C[C@H](O/N=C2/[C@H]3CCn4c(=O)n(-c5ccccc5)c(=O)n4[C@H]3[C@H](O)[C@@H]3O[C@H]23)[C@@H](CO)O1 [BUCMLD-B10A7]	–	1.1731	–	−3.3561	–
Cc1c(C)c2c(c(C)c1O)CCC(C)(COc1ccc(CC3SC(=O)NC3=O)cc1)O2 (stereo not shown) [Troglitazone, troglitazone]	–	–	–	–	≥ 50
C#CCCCO/N=C1/[C@H]2CCn3c(=O)n([C@@H](CC)c4ccccc4)c(=O)n3[C@H]2[C@H](O)[C@@H]2O[C@H]12 [BUCMLD-XL-189]	−3.4882	0.2217	–	–	–
